Test results taken from paper PMC8948292, “Combining PEGylated mito-atovaquone with MCT and Krebs cycle redox inhibitors as a potential strategy to abrogate tumor cell proliferation” (Scientific Reports, 2022).
pIC50: −log10 of the molar value. Read-outs that look alike come from different tables or passages of the source. Values belong to the molecule of their own block, whether it stands above or below them.

Tests used:
MiaPaCa-2 cells [1] = experiment: Cell proliferation (cell confluence), IncuCyte Live-Cell Analysis System; format: cell-based, human; conditions: for pIC50: Homo sapiens; for Inhibition of cell proliferation in combination with Mito-PEG5-ATO (combination index): combined with Mito-PEG5-ATO; for % changes of IC50 with vs without Mito-PEG5-ATO: heat map Fig. 7d
Experimental: The following cell lines were obtained from the American Type Culture Collection (Manassas, VA), where they were regularly authenticated: MiaPaCa-2 (ATCC Cat# CRL-1420, human pancreatic cancer cells), U87MG (ATCC Cat# HTB-14, human brain cancer cells), A549 (ATCC Cat# CCL-185, lung cancer cells), and HCT-116 (ATCC Cat# CCL-247, colon cancer cells). All cell lines were grown at 37 °C in 5% carbon dioxide. MiaPaCa-2 cells were maintained in Dulbecco's Modified Eagle Medium (Thermo Fisher Scientific, Waltham, MA; Cat# 11965) supplemented with 10% fetal bovine serum. U87MG, A549, and HCT-116 cells were maintained in RPMI 1640 medium (Thermo Fisher Scientific, Cat# 11875), supplemented with 10% fetal bovine serum. All cells were stored in liquid nitrogen and used within 20 passages after thawing.
The IncuCyte Live-Cell Analysis System was used to monitor cell proliferation[3],[33],[67]. As shown in previous publications[3],[67], this imaging system is probe-free and noninvasive, and enables continuous monitoring of cell confluence over several days. The increase in the percentage of cell confluence was used as a surrogate marker of cell proliferation. In a 96-well plate, cells were plated at 1,000 cells per well in triplicates and left to adhere overnight. Cells were then treated with Mito-PEG-ATO analogs, and the cell confluency was recorded over several days in the IncuCyte Live-Cell Analysis System.

MiaPaCa-2 cells [2] = experiment: Intracellular ATP, luciferase-based assay; format: cell-based, human; conditions: Mito-PEG5-ATO 0 µM, 24 h
Experimental: After seeding cells overnight at 2 × 10^4 per well in 96-well plates, cells were treated for 24 h. Intracellular ATP levels were determined in cell lysates using a luciferase-based assay per the manufacturer’s instructions (cat# FLAA, Sigma Aldrich, St. Louis, MO). In brief, the assay starts by rapidly adding an ATP assay mix solution (luciferase and luciferin solution, cat# FLAAM) to cell lysates. This is swirled briskly to mix, and the amount of light produced is immediately measured with a luminometer. The results were normalized to the total protein level measured in each well, as determined by the Bradford method (Bio-Rad Laboratories, Hercules, CA).

MiaPaCa-2 cells [3] = experiment: Intracellular oxidants: HPLC of hydroethidine (HE) oxidation products; format: cell-based, human; conditions: 24 h, with Mito-PEG5-ATO 0.05 µM, AZD-3965 200 µM or CPI-613 200 µM
Experimental: Hydroethidine (HE) or dihydroethidium was used as a fluorogenic probe to assess the cellular generation of superoxide and other peroxidatic oxidants[36],[37]. Cells were treated for 24 h with Mito-PEG5-ATO alone or in combination with AZD-3965 or CPI-613, followed by 1 h incubation with HE (10 µM). Cells were harvested and the cell pellet stored at − 80 °C until the day of high-performance liquid chromatography (HPLC) analysis. Sample preparation and HPLC analysis were performed as previously reported[32],[36]. 2-OH-E^+ was used as a specific marker for superoxide, and E^+-E^+ was used as a specific marker for intracellular one-electron oxidants[36],[37].
HE was purchased from Invitrogen (Carlsbad, CA). Stock solutions (20 mM and 5 mM, respectively) were prepared in deoxygenated DMSO (dimethyl sulfoxide) and stored at − 80 °C until use. Ethidium cation (bromide salt) was purchased from Sigma-Aldrich. The hydroxylated oxidation products from HE (2-OH-E^+) were prepared by reacting the probes with Fremy’s salt as previously described in detail[70],[71]. The dimeric products were prepared by reacting the probes with excess potassium ferricyanide, as detailed elsewhere. Synthesized standards of all oxidation products of HE were purified by HPLC. HPLC-based measurements of HE and its oxidation products were performed using an Agilent 1100 system equipped with absorption and fluorescence detectors and refrigerated autosampler (4 °C). The samples (50 µL) were injected into a reverse phase column (Phenomenex, Kinetex C18, 100 mm × 4.6 mm, 2.6 µm) equilibrated with 20% acetonitrile and 80% water containing 0.1% trifluoroacetic acid. The compounds were eluted by increasing the content of acetonitrile from 20 to 56% over 4.5 min at a flow rate of 1.5 mL/min. The absorption detector was used to measure 3,8-diamino-6-phenylphenanthridine (at 290 nm; retention time: 2.5 min), HE-E^+ (at 290 nm; retention time: 4.1 min), E^+-E^+ (at 290 nm; retention time: 4.3 min), and HE (at 370 nm; retention time: 1.6 min). A fluorescence detector (initial excitation at 358 nm and emission at 440 nm) was used to monitor HE (when present at low concentrations). At 2.3 min after injection, the fluorescence parameters were changed (excitation at 490 nm and emission at 567 nm) for sensitive detection of 2-OH-E^+ (retention time: 3.2 min) and E^+ (retention time: 3.3 min).

[4] = biological target: mitochondrial complex III (MiaPaCa-2 cells) (Homo sapiens, UniProt P00156); experiment: Complex III-dependent oxygen consumption in permeabilized cells, Seahorse XF-96; format: cell-based
Chain of mitochondrial complex III (MiaPaCa-2 cells) (P00156 whole entry): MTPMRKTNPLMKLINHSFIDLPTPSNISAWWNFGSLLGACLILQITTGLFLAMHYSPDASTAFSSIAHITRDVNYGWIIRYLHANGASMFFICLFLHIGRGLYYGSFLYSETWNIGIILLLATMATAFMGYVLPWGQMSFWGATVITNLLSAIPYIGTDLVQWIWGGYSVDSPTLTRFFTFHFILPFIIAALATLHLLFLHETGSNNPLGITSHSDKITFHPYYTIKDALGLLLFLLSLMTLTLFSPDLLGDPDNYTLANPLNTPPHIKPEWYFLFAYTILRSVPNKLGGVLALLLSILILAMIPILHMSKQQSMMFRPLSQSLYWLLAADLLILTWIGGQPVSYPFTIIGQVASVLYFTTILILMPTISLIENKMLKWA
Chain of mitochondrial complex III (MiaPaCa-2 cells) (P47985 whole entry partner): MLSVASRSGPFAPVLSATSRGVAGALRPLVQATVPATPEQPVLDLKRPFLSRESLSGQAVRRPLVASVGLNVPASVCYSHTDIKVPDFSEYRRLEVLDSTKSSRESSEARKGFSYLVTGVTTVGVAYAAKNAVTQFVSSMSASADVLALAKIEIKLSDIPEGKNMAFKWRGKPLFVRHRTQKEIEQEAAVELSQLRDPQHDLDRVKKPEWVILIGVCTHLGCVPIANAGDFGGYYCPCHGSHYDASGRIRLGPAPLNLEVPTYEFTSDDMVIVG
Experimental: (§1) Mitochondrial oxygen consumption was measured using the Seahorse XF-96 Extracellular Flux Analyzer (Agilent, North Billerica, MA)[3],[33],[67],[68]. To determine the intact cell mitochondrial function of MiaPaCa-2 cells in response to Mito-PEG-ATO analogs, we used the bioenergetic function assay previously described[2],[3]. […] From these measurements, indices of mitochondrial function were determined as previously described[2],[3]. For mitochondrial complex activities assays, after cells were treated with Mito-PEG-ATO analogs for 24 h, the OCR-based assessment of mitochondrial complex activities was carried out on acutely permeabilized cells in the presence of different mitochondrial substrates, i.e., pyruvate/malate for complex I and duroquinol for complex III[3],[32],[34],[69]. Rotenone, malonate, and antimycin A (Sigma-Aldrich, St. Louis, MO) were used as specific inhibitors of mitochondrial complexes I, II, and III, respectively. Briefly, cells that were intact after treatments were immediately permeabilized using the Seahorse XF Plasma Membrane Permeabilizer (Agilent). The mitochondrial complex I-induced OCR was assayed in mannitol and sucrose buffer[69] containing 10 mM pyruvate and 1.5 mM malate (substrates for complex I) and 10 mM malonate (which inhibits complex II activities). The mitochondrial complex III-driven OCR was assayed in a mannitol and sucrose buffer containing 0.5 mM duroquinol (substrate for complex III) as well as 1 µM rotenone and 10 mM malonate (which inhibit both complex I and II activities). The IC50 values were determined as previously reported.

[5] = tested on: mitochondrial respiration (OCR) in intact MiaPaCa-2 cells; experiment: Intact cell mitochondrial respiration (basal OCR), Seahorse XF-96; format: cell-based, human
Experimental: as §1

[6] = MIA PaCa-2, MiaPaCa-2 cells, inhibitor alone, control ~90% confluence, read-out: IC50 (cell proliferation) without Mito-PEG5-ATO

pIC50 (MiaPaCa-2 cells [1]; [6]): 5.10
% changes of IC50 with vs without Mito-PEG5-ATO (MiaPaCa-2 cells [1]; MiaPaCa-2 cells): 53.8%
Compound: CCOC(=O)Oc1c(OC)cc(C(=O)O[C@@H]2C[C@@H]3CN4CCc5c([nH]c6cc(OC)ccc56)[C@H]4C[C@@H]3[C@H](C(=O)OC)[C@H]2OC)cc1OC [syrosingopine]
Inhibition of cell proliferation in combination with Mito-PEG5-ATO (combination index) (MiaPaCa-2 cells [1]; MiaPaCa-2 cells): Synergistic inhibition
intracellular ATP level (MiaPaCa-2 cells [2]; syrosingopine 1 µM): 29.40 nmol ATP/mg protein
intracellular ATP level (MiaPaCa-2 cells [2]; syrosingopine 3 µM): 30.31 nmol ATP/mg protein
intracellular ATP level (MiaPaCa-2 cells [2]; syrosingopine 4 µM): 29.92 nmol ATP/mg protein
intracellular ATP level (MiaPaCa-2 cells [2]; syrosingopine 5 µM): 30.42 nmol ATP/mg protein
intracellular ATP level (MiaPaCa-2 cells [2]; syrosingopine 6 µM): 30.16 nmol ATP/mg protein
intracellular ATP level (MiaPaCa-2 cells [2]; syrosingopine 7 µM): 31.07 nmol ATP/mg protein
intracellular ATP level (MiaPaCa-2 cells [2]; syrosingopine 8 µM): 31.92 nmol ATP/mg protein
intracellular ATP level (MiaPaCa-2 cells [2]; syrosingopine 9 µM): 32.59 nmol ATP/mg protein
intracellular ATP level (MiaPaCa-2 cells [2]; syrosingopine 10 µM): 32.30 nmol ATP/mg protein
intracellular ATP level (MiaPaCa-2 cells [2]; syrosingopine 15 µM): 33.63 nmol ATP/mg protein
intracellular ATP level (MiaPaCa-2 cells [2]; syrosingopine 20 µM): 30.18 nmol ATP/mg protein
Intracellular oxidant-induced HE-derived products, in combination with Mito-PEG5-ATO (MiaPaCa-2 cells [3]): modest and additive increase

pIC50 (MiaPaCa-2 cells [1]; [6]): 3.71
% changes of IC50 with vs without Mito-PEG5-ATO (MiaPaCa-2 cells [1]; MiaPaCa-2 cells): 38.6%
Compound: O=C(O)CCCCC(CCSCc1ccccc1)SCc1ccccc1 (stereo not shown) [CPI-613, reference compound]
Inhibition of cell proliferation, alone (MiaPaCa-2 cells [1]; MiaPaCa-2 cells, 200 µM): only moderately inhibited cell proliferation
Inhibition of cell proliferation in combination with Mito-PEG5-ATO (combination index) (MiaPaCa-2 cells [1]; MiaPaCa-2 cells): synergistically inhibited cell proliferation
Intracellular oxidant-induced HE-derived products, in combination with Mito-PEG5-ATO (MiaPaCa-2 cells [3]): modest and additive increase

Compound: O=C1C(OCCOCCOCCOCCOCCOCCOCCOCCOCC[P+](c2ccccc2)(c2ccccc2)c2ccccc2)=C([C@H]2CC[C@H](c3ccc(Cl)cc3)CC2)C(=O)c2ccccc21.[Br-] [Mito-PEG9-ATO, (26-((3-(trans-4-(4-chlorophenyl)cyclohexyl)-1,4-dioxo-1,4-dihydronaphthalen-2-yl)oxy)-3,6,9,12,15,18,21,24-octaoxahexacosyl)triphenylphosphonium bromide]
pIC50 (MiaPaCa-2 cells [1]; MIA PaCa-2, read-out: IC50, inhibition of cell proliferation): 6.80
Cell confluence (% of control) (MiaPaCa-2 cells [1]; MiaPaCa-2 cells, 0.01 µM, control ~90% confluence): 99.63 % of control
Cell confluence (% of control) (MiaPaCa-2 cells [1]; MiaPaCa-2 cells, 0.03 µM, control ~90% confluence): 99.03 % of control
Cell confluence (% of control) (MiaPaCa-2 cells [1]; MiaPaCa-2 cells, 0.1 µM, control ~90% confluence): 81.02 % of control
Cell confluence (% of control) (MiaPaCa-2 cells [1]; MiaPaCa-2 cells, 0.15 µM, control ~90% confluence): 60.68 % of control
Cell confluence (% of control) (MiaPaCa-2 cells [1]; MiaPaCa-2 cells, 0.2 µM, control ~90% confluence): 25.97 % of control
Cell confluence (% of control) (MiaPaCa-2 cells [1]; MiaPaCa-2 cells, 0.25 µM, control ~90% confluence): 14.32 % of control
Cell confluence (% of control) (MiaPaCa-2 cells [1]; MiaPaCa-2 cells, 0.3 µM, control ~90% confluence): 10.81 % of control
Cell confluence (% of control) (MiaPaCa-2 cells [1]; MiaPaCa-2 cells, 0.4 µM, control ~90% confluence): 7.81 % of control
Cell confluence (% of control) (MiaPaCa-2 cells [1]; MiaPaCa-2 cells, 0.5 µM, control ~90% confluence): 5.89 % of control
Cell confluence (% of control) (MiaPaCa-2 cells [1]; MiaPaCa-2 cells, 1 µM, control ~90% confluence): 4.84 % of control
Cell confluence (% of control) (MiaPaCa-2 cells [1]; MiaPaCa-2 cells, 5 µM, control ~90% confluence): 3.30 % of control
Complex III activity (OCR, % of control) ([4]; 0.003 µM): 101.6 % of control
Complex III activity (OCR, % of control) ([4]; 0.01 µM): 95.6 % of control
Complex III activity (OCR, % of control) ([4]; 0.03 µM): 96.5 % of control
Complex III activity (OCR, % of control) ([4]; 0.05 µM): 100.1 % of control
Complex III activity (OCR, % of control) ([4]; 0.1 µM): 95.3 % of control
Complex III activity (OCR, % of control) ([4]; 0.2 µM): 93.6 % of control
Complex III activity (OCR, % of control) ([4]; 0.3 µM): 92.1 % of control
Complex III activity (OCR, % of control) ([4]; 0.4 µM): 72.1 % of control
Complex III activity (OCR, % of control) ([4]; 0.5 µM): 48.1 % of control
Complex III activity (OCR, % of control) ([4]; 0.75 µM): 16.6 % of control
Complex III activity (OCR, % of control) ([4]; 1 µM): 4.7 % of control
pIC50 ([4]; MiaPaCa-2 cells, 24 h treatment, antimycin A-inhibitable OCR, read-out: IC50, complex III-induced oxygen consumption (Complex III activity)): 6.30
OCR (pmol/min/µg protein) ([5]; 0.01 µM, 24 h treatment, intact MiaPaCa-2 cells, baseline OCR, mean, n=4): 13.41 pmol/min/µg protein
OCR (basal, intact cell mitochondrial respiration) ([5]; 0.03 µM, 24 h treatment, intact MiaPaCa-2 cells, mean, n=4): 12.24 pmol/min/µg protein
OCR (basal, intact cell mitochondrial respiration) ([5]; 0.1 µM, 24 h treatment, intact MiaPaCa-2 cells, mean, n=4): 7.60 pmol/min/µg protein
OCR (basal, intact cell mitochondrial respiration) ([5]; 0.2 µM, 24 h treatment, intact MiaPaCa-2 cells, mean, n=4): 3.64 pmol/min/µg protein
OCR (basal, intact cell mitochondrial respiration) ([5]; 0.3 µM, 24 h treatment, intact MiaPaCa-2 cells, mean, n=4): 1.87 pmol/min/µg protein
OCR (basal, intact cell mitochondrial respiration) ([5]; 0.4 µM, 24 h treatment, intact MiaPaCa-2 cells, mean, n=4): 1.43 pmol/min/µg protein
OCR (basal, intact cell mitochondrial respiration) ([5]; 0.5 µM, 24 h treatment, intact MiaPaCa-2 cells, mean, n=4): 1.22 pmol/min/µg protein
OCR (basal, intact cell mitochondrial respiration) ([5]; 1 µM, 24 h treatment, intact MiaPaCa-2 cells, mean, n=4): 1.18 pmol/min/µg protein
OCR (basal, intact cell mitochondrial respiration) ([5]; 3 µM, 24 h treatment, intact MiaPaCa-2 cells, mean, n=4): 0.96 pmol/min/µg protein
OCR (basal, intact cell mitochondrial respiration) ([5]; 5 µM, 24 h treatment, intact MiaPaCa-2 cells, mean, n=4): 0.01 pmol/min/µg protein
pIC50 ([5]; Homo sapiens, MIA PaCa-2, 24 h, read-out: IC50, inhibition of basal OCR in intact cells): 6.96
